Molecular target: unphosphorylated-BTK kinase domain (UP-BTK), GST-tagged human BTK (389-659aa) (Homo sapiens (Human), UniProt Q06187)
Assay: BTK Kinase Lanthascreen Binding Assay
Settings: for BTK_I_binding pIC50: pIC50 = negative log of the IC50 in molar; for IC50: read-out: BTK_I_binding pIC50 (converted)
Experimental: BTK Kinase Lanthascreen Binding Assay:
A BTK kinase lanthascreen binding assay monitors compound binding to unphosphorylated-BTK kinase domain (UP-BTK), by competing with a fluorescent labeled tracer. […] Data were analyzed using Xlfit™ version 5.3 from ID Business Solutions (Guildford), Microsoft Excel add-in. pIC50 refers to the negative log of the IC50 in molar.

[1] = Lanthascreen binding, 60 minutes incubation
[2] = compound, 50 nM Tracer 236, 2 nM anti-GST antibody, 60 minutes

unphosphorylated-BTK kinase domain (UP-BTK), GST-tagged human BTK (389-659aa), sequence (Q06187 389-659): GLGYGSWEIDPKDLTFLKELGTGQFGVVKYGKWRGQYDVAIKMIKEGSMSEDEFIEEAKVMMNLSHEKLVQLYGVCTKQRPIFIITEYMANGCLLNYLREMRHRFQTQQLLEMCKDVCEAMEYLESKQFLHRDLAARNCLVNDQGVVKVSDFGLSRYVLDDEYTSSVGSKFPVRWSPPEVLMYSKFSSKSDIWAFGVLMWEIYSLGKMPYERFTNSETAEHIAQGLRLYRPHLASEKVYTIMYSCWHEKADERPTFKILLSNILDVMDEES

| Structure (SMILES) | BTK_I_binding pIC50 [1] | BTK_I_binding pIC50 [2] | other results |
| --- | --- | --- | --- |
| C=CC(=O)N[C@H]1CCC[C@H]1NC(=O)c1sc2nccc3c2c1NC(=O)N3c1ccc(Oc2ncccn2)nc1C [Example 468, N-((1R,2S)-2-Acrylamidocyclopentyl)-5-(2-methyl-6-(pyrimidin-2-yloxy)pyridin-3-yl)-4-oxo-4,5-dihydro-3H-1-thia-3,5,8-triazaacenaphthylene-2-carboxamide] | 6.52 |  |  |
| CC(=O)N[C@H]1CC[C@H](NC(=O)c2sc3nccc4c3c2NC(=O)N4c2ccc(Oc3ccccc3)nc2C)C1 (single isomer, unassigned) [Example 410, N-((1S,3S)-3-Acetamidocyclopentyl)-5-(*S)-(2-methyl-6-phenoxypyridin-3-yl)-4-oxo-4,5-dihydro-3H-1-thia-3,5,8-triazaacenaphthylene-2-carboxamide] |  |  | IC50: > 1000 nM |
| Cc1cc(Oc2ccccc2)ccc1N1C(=O)Nc2c(C(=O)N[C@@H]3CCC[C@@H](N)C3)sc3nccc1c23 (single isomer, unassigned) [Example 181] |  | 7.33 |  |
| C=CC(=O)N[C@H]1CC[C@@H](NC(=O)c2sc3nccc4c3c2NC(=O)N4c2ccc(OC(C)C)cc2C)C1 (single isomer, unassigned) [Example 276, N-((1R,3S)-3-Acrylamidocyclopentyl)-5-(*R)-(4-isopropoxy-2-methylphenyl)-4-oxo-4,5-dihydro-3H-1-thia-3,5,8-triazaacenaphthylene-2-carboxamide] |  |  | IC50: > 1000 nM |
| Cc1cc(Oc2ccccc2)ccc1N1C(=O)Nc2c(C(=O)N[C@H]3CCC[C@H]3NC(=O)CN)sc3nccc1c23 (single isomer, unassigned) [Example 154, N-((1S,2R)-2-(2-Aminoacetamido)cyclopentyl)-5-(*S)-(2-methyl-4-phenoxyphenyl)-4-oxo-4,5-dihydro-3H-1-thia-3,5,8-triazaacenaphthylene-2-carboxamide] |  | 6.36 |  |
| C=CC(=O)N[C@@H]1CCCC[C@@H]1NC(=O)c1sc2nccc3c2c1NC(=O)N3c1ccc(Oc2ccccc2)cc1 [Example 124, N-((1S,2R)-2-Acrylamidocyclohexyl)-4-oxo-5-(4-phenoxyphenyl)-4,5-dihydro-3H-1-thia-3,5,8-triazaacenaphthylene-2-carboxamide] |  | 6.71 |  |
| Cc1cc(Oc2ccccc2)ccc1N1C(=O)Nc2c(C(=O)N[C@H]3CC[C@@H](NC(=O)CN(C)C)C3)sc3nccc1c23 (single isomer, unassigned) [Example 102, N-((1S,3R)-3-(2-(dimethylamino)acetamido)cyclopentyl)-5-(*S)-(2-methyl-4-phenoxyphenyl)-4-oxo-4,5-dihydro-3H-1-thia-3,5,8-triazaacenaphthylene-2-carboxamide] |  | 7.50 |  |
| C=CC(=O)N[C@H]1CCC[C@H]1NC(=O)c1sc2nccc3c2c1NC(=O)N3c1ccc(Oc2cccnn2)cc1C (single isomer, unassigned) [Example 424, N-((1R,2S)-2-Acrylamidocyclopentyl)-5-(*S)-(2-methyl-4-(pyridazin-3-yloxy)phenyl)-4-oxo-4,5-dihydro-3H-1-thia-3,5,8-triazaacenaphthylene-2-carboxamide] | 7.76 |  |  |
| O=C(N[C@@H]1CCC[C@@H](O)C1)c1sc2nccc3c2c1NC(=O)N3c1ccc(Oc2ccccc2)cc1 [Example 139, N-((1R,3R)-3-Hydroxycyclohexyl)-4-oxo-5-(4-phenoxyphenyl)-4,5-dihydro-3H-1-thia-3,5,8-triazaacenaphthylene-2-carboxamide] |  | 7.23 |  |
| C=CC(=O)N[C@H]1CCC[C@H]1NC(=O)c1sc2nccc3c2c1NC(=O)N3c1cnc(Oc2ccccc2)nc1C (single isomer, unassigned) [Example 166, N-((1R,2S)-2-Acrylamidocyclopentyl)-5-(*S)-(4-methyl-2-phenoxypyrimidin-5-yl)-4-oxo-4,5-dihydro-3H-1-thia-3,5,8-triazaacenaphthylene-2-carboxamide] |  | 8.13 |  |
| CC(C)Oc1ccc(N2C(=O)Nc3c(C(=O)N[C@@H]4CCC[C@@H]4N)sc4nccc2c34)cc1 [Example 271, N-((1R,2S)-2-Aminocyclopentyl)-5-(4-isopropoxyphenyl)-4-oxo-4,5-dihydro-3H-1-thia-3,5,8-triazaacenaphthylene-2-carboxamide] |  |  | IC50: > 1000 nM |
| CC(=O)N[C@H]1CC[C@H](NC(=O)c2sc3nccc4c3c2NC(=O)N4c2cnc(Oc3ccccc3)cc2C)CC1 [Example 432, N-((1r,4r)-4-Acetamidocyclohexyl)-5-(*S)-(4-methyl-6-phenoxypyridin-3-yl)-4-oxo-4,5-dihydro-3H-1-thia-3,5,8-triazaacenaphthylene-2-carboxamide] | 7.45 |  |  |
| Cc1cc(Oc2ccccc2)ccc1N1C(=O)Nc2c(C(=O)N[C@@H]3CC[C@@H](N)C3)sc3nccc1c23 [Example 236, N-((1R,3R)-3-Aminocyclopentyl)-5-(2-methyl-4-phenoxyphenyl)-4-oxo-4,5-dihydro-3H-1-thia-3,5,8-triazaacenaphthylene-2-carboxamide] |  | 7.00 |  |
| C=CC(=O)N[C@@H]1CC[C@H](NC(=O)c2sc3nccc4c3c2NC(=O)N4c2ccc(OC(C)C)cc2C)C1 [Example 110, N-((1S,3R)-3-Acrylamidocyclopentyl)-5-(4-isopropoxy-2-methylphenyl)-4-oxo-4,5-dihydro-3H-1-thia-3,5,8-triazaacenaphthylene-2-carboxamide] |  | 7.23 |  |
| C=CC(=O)N[C@H]1CCC[C@@H](NC(=O)c2sc3nccc4c3c2NC(=O)N4c2cnc(Oc3ccccc3)cc2C)C1 (single isomer, unassigned) [Example 363, N-((1R,3S)-3-Acrylamidocyclohexyl)-5-(*S)-(4-methyl-6-phenoxypyridin-3-yl)-4-oxo-4,5-dihydro-3H-1-thia-3,5,8-triazaacenaphthylene-2-carboxamide] | 6.31 |  |  |
| CCC(=O)N[C@H]1CC[C@@H](NC(=O)c2sc3nccc4c3c2NC(=O)N4c2ccc(Oc3ccccc3)cc2C)CC1 [Example 65, 5-(2-Methyl-4-phenoxyphenyl)-4-oxo-N-((1S,4S)-4-propionamidocyclohexyl)-4,5-dihydro-3H-1-thia-3,5,8-triazaacenaphthylene-2-carboxamide] |  | 7.20 |  |
| Cc1cc(Oc2ccccc2)ncc1N1C(=O)Nc2c(C(=O)N[C@@H]3CC[C@H](N)C3)sc3nccc1c23 (single isomer, unassigned) [Example 355, N-((1R,3S)-3-Aminocyclopentyl)-5-(*S)-(4-methyl-6-phenoxypyridin-3-yl)-4-oxo-4,5-dihydro-3H-1-thia-3,5,8-triazaacenaphthylene-2-carboxamide] | 6.61 |  |  |
| Cc1cc(Oc2ccccc2)ccc1N1C(=O)Nc2c(C(=O)N[C@@H]3CCC[C@H]3N)sc3nccc1c23 [Example 22, N-((1R,2R)-2-Aminocyclopentyl)-5-(2-methyl-4-phenoxyphenyl)-4-oxo-4,5-dihydro-3H-1-thia-3,5,8-triazaacenaphthylene-2-carboxamide] |  | 7.13 |  |
| C=CC(=O)N[C@H]1CCC[C@H]1NC(=O)c1sc2nccc3c2c1NC(=O)N3c1cnc(OCC(C)C)cc1C (single isomer, unassigned) [Example 373, N-((1R,2S)-2-Acrylamidocyclopentyl)-5-(*S)-(6-isobutoxy-4-methylpyridin-3-yl)-4-oxo-4,5-dihydro-3H-1-thia-3,5,8-triazaacenaphthylene-2-carboxamide] | 8.25 |  |  |
| C=CC(=O)N[C@H]1CCCC[C@H]1NC(=O)c1sc2nccc3c2c1NC(=O)N3c1ccnc(-c2ccccc2)c1 [Example 168, N-((1R,2S)-2-Acrylamidocyclohexyl)-4-oxo-5-(2-phenylpyridin-4-yl)-4,5-dihydro-3H-1-thia-3,5,8-triazaacenaphthylene-2-carboxamide] |  | 8.10 |  |
| Cc1cc(Oc2ccccc2)ccc1N1C(=O)Nc2c(C(=O)N[C@H]3CCCC[C@H]3N)sc3nccc1c23 (single isomer, unassigned) [Example 450, N-((1S,2R)-2-Aminocyclohexyl)-5-(*S)-(2-methyl-4-phenoxyphenyl)-4-oxo-4,5-dihydro-3H-1-thia-3,5,8-triazaacenaphthylene-2-carboxamide] | 6.47 |  |  |
| CC(=O)NC1CCC[C@H](NC(=O)c2sc3nccc4c3c2NC(=O)N4c2cnc(Oc3ccccc3)cc2C)C1 (single isomer, unassigned) [Example 407, N-((1S,3R)-3-Acetamidocyclohexyl)-5-(*S)-(4-methyl-6-phenoxypyridin-3-yl)-4-oxo-4,5-dihydro-3H-1-thia-3,5,8-triazaacenaphthylene-2-carboxamide] | 6.05 |  |  |
| Cc1cc(Oc2ccccc2)ccc1N1C(=O)Nc2c(C(=O)N[C@@H]3CCC[C@@H]3NC(=O)CN(C)C)sc3nccc1c23 (single isomer, unassigned) [Example 128, N-((1R,2S)-2-(2-(Dimethylamino)acetamido)cyclopentyl)-5-(*S)-(2-methyl-4-phenoxyphenyl)-4-oxo-4,5-dihydro-3H-1-thia-3,5,8-triazaacenaphthylene-2-carboxamide] |  | 7.10 |  |
| C=CC(=O)N[C@H]1CCCC[C@H]1NC(=O)c1sc2nccc3c2c1NC(=O)N3c1cnc(Oc2ccccc2)cc1C (single isomer, unassigned) [Example 173, N-((1R,2S)-2-Acrylamidocyclohexyl)-5-(*S)-(4-methyl-6-phenoxypyridin-3-yl)-4-oxo-4,5-dihydro-3H-1-thia-3,5,8-triazaacenaphthylene-2-carboxamide] |  | 8.02 |  |
| Cc1cc(Oc2ccccc2)ncc1N1C(=O)Nc2c(C(=O)N[C@@H]3CCC[C@@H]3N)sc3nccc1c23 (single isomer, unassigned) [Example 170, N-((1R,2S)-2-Aminocyclopentyl)-5-(*S)-(4-methyl-6-phenoxypyridin-3-yl)-4-oxo-4,5-dihydro-3H-1-thia-3,5,8-triazaacenaphthylene-2-carboxamide] |  | 7.02 |  |

From patent US10934310B2, “Inhibitors of Bruton's tyrosine kinase and method of their use” (JANSSEN PHARMACEUTICA NV, priority 2015, dated 2021)
